Source: US9796733B2, “Imidazo-pyrazine derivatives useful as soluble guanylate cyclase activators” (Merck Sharp & Dohme Corp., priority 2014, dated 2017)

Target: T1, sGC α1/β1 heterodimer (Homo sapiens, UniProt Q02108+Q02153)
T1 construct: expressed in transfected cells; host or cells: CHO-K1 (clone #7, CHO-K1/sGC)
T1 sequence (Q02108 1-690): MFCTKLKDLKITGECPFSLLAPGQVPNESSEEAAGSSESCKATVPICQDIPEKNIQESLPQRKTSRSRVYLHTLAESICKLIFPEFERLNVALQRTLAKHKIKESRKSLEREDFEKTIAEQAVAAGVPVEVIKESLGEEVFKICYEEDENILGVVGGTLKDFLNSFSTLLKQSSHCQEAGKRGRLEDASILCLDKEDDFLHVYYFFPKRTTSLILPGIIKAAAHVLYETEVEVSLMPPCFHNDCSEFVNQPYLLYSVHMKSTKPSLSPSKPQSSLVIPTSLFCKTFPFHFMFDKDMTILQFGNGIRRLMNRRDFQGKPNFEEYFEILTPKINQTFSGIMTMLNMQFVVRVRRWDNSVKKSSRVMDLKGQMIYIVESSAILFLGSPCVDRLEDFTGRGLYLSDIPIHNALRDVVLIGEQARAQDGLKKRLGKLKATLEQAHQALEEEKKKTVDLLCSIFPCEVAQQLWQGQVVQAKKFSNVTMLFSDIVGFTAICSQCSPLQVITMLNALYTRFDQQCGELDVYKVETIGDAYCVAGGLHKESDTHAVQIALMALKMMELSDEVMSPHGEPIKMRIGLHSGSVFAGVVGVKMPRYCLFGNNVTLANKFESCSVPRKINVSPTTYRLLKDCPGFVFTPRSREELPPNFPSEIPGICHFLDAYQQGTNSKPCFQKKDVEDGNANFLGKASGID
T1 sequence (Q02153 1-619): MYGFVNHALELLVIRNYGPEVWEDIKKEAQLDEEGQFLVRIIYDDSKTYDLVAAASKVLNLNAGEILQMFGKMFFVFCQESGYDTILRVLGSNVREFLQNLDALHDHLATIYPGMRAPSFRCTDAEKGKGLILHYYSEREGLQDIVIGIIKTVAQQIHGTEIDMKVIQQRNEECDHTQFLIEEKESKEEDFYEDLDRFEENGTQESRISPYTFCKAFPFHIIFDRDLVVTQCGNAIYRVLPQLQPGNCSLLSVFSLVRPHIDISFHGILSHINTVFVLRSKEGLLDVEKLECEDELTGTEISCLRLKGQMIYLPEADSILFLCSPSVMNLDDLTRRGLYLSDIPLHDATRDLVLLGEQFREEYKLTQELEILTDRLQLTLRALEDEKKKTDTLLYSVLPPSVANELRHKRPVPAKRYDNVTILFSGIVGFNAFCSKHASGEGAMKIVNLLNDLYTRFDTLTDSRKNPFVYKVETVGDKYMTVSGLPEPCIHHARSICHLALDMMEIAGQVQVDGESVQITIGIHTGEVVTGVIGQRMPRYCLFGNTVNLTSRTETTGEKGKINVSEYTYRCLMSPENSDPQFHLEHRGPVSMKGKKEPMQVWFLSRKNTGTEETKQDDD
Assay: Cell-based sGC functional assay (CASA assay): cGMP generation in CHO-K1/sGC cells, HTRF detection
Settings: for Emax: CHO-K1, percent activation relative to standard Compound A in CHO-K1/sGC cells, read-out: % Act.; for EC50: inflection point (IP) of cGMP generation in CHO-K1/sGC cells, 4P fit, activity expressed as percentage of Compound A
Summary of the method: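 Stable CHO-K1/sGC cells in EBSS buffer with 5 mM MgCl2, 0.05% BSA and 0.5 mM IBMX were incubated with compound (2.5% DMSO final) ±1 μM DETA-NO for 1 hr at 37° C. cGMP was measured by HTRF. Activation is expressed as % of reference HDA Compound A maximum, with IP and max fold induction from a 4P fit.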

| Structure (SMILES) | Emax [%] | EC50 [nM] | % Act. (percent activation relative to standard Compound A in CHO-K1/sGC cells) [%] |
| --- | --- | --- | --- |
| Nc1nc(-c2cn3ccnc3c(CCC(F)(F)C(F)(F)F)n2)nc2c1C(c1cccnc1)(C1CC1)C(=O)N2 (single isomer, unassigned) [Example 359B, 4-amino-5-cyclopropyl-2-(8-(3,3,4,4,4-pentafluorobutyl)imidazo[1,2-a]pyrazin-6-yl)-5-(pyridin-3-yl)-5H-pyrrolo[2,3-d]pyrimidin-6(7H)-one] | 108 | 302 | – |
| CC1(C(=O)NC2CC2)C(=O)Nc2nc(-c3cn4cc(C(F)(F)F)nc4c(Cc4cccc(F)c4)n3)nc(N)c21 (stereo not drawn) [Example 46A, 4-amino-N-cyclopropyl-2-(8-(3-fluorobenzyl)-2-(trifluoromethyl)imidazo[1,2-a]pyrazin-6-yl)-5-methyl-6-oxo-6,7-dihydro-5H-pyrrolo[2,3-d]pyrimidine-5-carboxamide] | 124 | 570 | – |
| CCOC(=O)CCNc1nc(-c2cn3ccnc3c(CCC(F)(F)F)n2)nc2c1C(C)(c1ccc(Cl)cc1)C(=O)N2 (stereo not drawn) [Example 298A, ethyl 3-((5-(4-chlorophenyl)-5-methyl-6-oxo-2-(8-(3,3,3-trifluoropropyl)imidazo[1,2-a]pyrazin-6-yl)-6,7-dihydro-5H-pyrrolo[2,3-d]pyrimidin-4-yl)amino)propanoate] | 114 | 121 | – |
| CC(C)(C)CCc1nc(-c2nc(N)c3c(n2)NC(=O)C3(C)c2ccc(Cl)cn2)cn2ccnc12 (stereo not drawn) [Example 123A, 4-amino-5-(5-chloropyridin-2-yl)-2-(8-(3,3-dimethylbutyl)imidazo[1,2-a]pyrazin-6-yl)-5-methyl-5H-pyrrolo[2,3-d]pyrimidin-6(7H)-one] | 105 | 61 | – |
| Cc1cc(F)cnc1C1(C2CC2)C(=O)Nc2nc(-c3cn4ccnc4c(CCC(F)(F)C(F)(F)F)n3)nc(N)c21 (single isomer, unassigned) [Example 375B, 4-amino-5-cyclopropyl-5-(5-fluoro-3-methylpyridin-2-yl)-2-(8-(3,3,4,4,4-pentafluorobutyl)imidazo[1,2-a]pyrazin-6-yl)-5H-pyrrolo[2,3-d]pyrimidin-6(7H)-one] | 41 | 931 | – |
| CC(C)Oc1ccc(C2(C)C(=O)Nc3nc(-c4cn5ccnc5c(CCC(F)(F)C(F)(F)F)n4)nc(N)c32)cn1 (stereo not drawn) [Example 241B, 4-amino-5-(6-isopropoxypyridin-3-yl)-5-methyl-2-(8-(3,3,4,4,4-pentafluorobutyl)imidazo [1,2-a]pyrazin-6-yl)-5H-pyrrolo[2,3-d]pyrimidin-6(7H)-one] | 99 | 58 | – |
| CC1(c2ccc(F)cc2)C(=O)Nc2nc(-c3cn4cc(C#N)nc4c(CCC(F)(F)C(F)(F)F)n3)nc(N)c21 (stereo not drawn) [Example 275A, 6-(4-Amino-5-(4-fluorophenyl)-5-methyl-6-oxo-6,7-dihydro-5H-pyrrolo[2,3-d]pyrimidin-2-yl)-8-(3,3,4,4,4-pentafluorobutyl)imidazo[1,2-a]pyrazine-2-carbonitrile] | 98 | 89 | – |
| Cc1nc2c(CCC(F)(F)C(F)(F)F)nc(-c3nc(N)c4c(n3)NC(=O)C4(C)c3ccc(F)cc3)cn2c1C#N (stereo not drawn) [Example 274A, 6-(4-amino-5-(4-fluorophenyl)-5-methyl-6-oxo-6,7-dihydro-5H-pyrrolo[2,3-d]pyrimidin-2-yl)-2-methyl-8-(3,3,4,4,4-pentafluorobutyl)imidazo[1,2-a]pyrazine-3-carbonitrile] | 100 | 238 | – |
| Nc1nc(-c2cn3ccnc3c(Cc3cccc(F)c3)n2)nc2c1C(C(=O)NC1CC1)(C1CC1)C(=O)N2 (single isomer, unassigned) [Example 38A, 4-amino-N,5-dicyclopropyl-2-(8-(3-fluorobenzyl)imidazo[1,2-a]pyrazin-6-yl)-6-oxo-6,7-dihydro-5H-pyrrolo[2,3-d]pyrimidine-5-carboxamide] | – | 61 | 124 |
| CC1(C(=O)NC2CC2)C(=O)Nc2nc(-c3cn4ccnc4c(Cc4ccccc4F)n3)nc(N)c21 (stereo not drawn) [Example 35A, 4-amino-N-cyclopropyl-2-(8-(2-fluorobenzyl)imidazo[1,2-a]pyrazin-6-yl)-5-methyl-6-oxo-6,7-dihydro-5H-pyrrolo[2,3-d]pyrimidine-5-carboxamide] | 129 | 16 | – |
| Nc1nc(-c2cn3ccnc3c(CCC(F)(F)F)n2)nc2c1C(c1ccc(C(F)(F)F)cn1)(C1CC1)C(=O)N2 (stereo not drawn) [Example 340A, 4-amino-5-cyclopropyl-5-(5-(trifluoromethyl)pyridin-2-yl)-2-(8-(3,3,3-trifluoropropyl)imidazo[1,2-a]pyrazin-6-yl)-5H-pyrrolo[2,3-d]pyrimidin-6(7H)-one] | 129 | 808 | – |
| CC1(C)C(=O)Nc2nc(-c3cn4cc(C(F)(F)F)nc4c(Cc4cccc(F)c4)n3)nc(N)c21 [Example 75, 4-amino-2-(8-(3-fluorobenzyl)-2-(trifluoromethyl)imidazo[1,2-a]pyrazin-6-yl)-5,5-dimethyl-5H-pyrrolo[2,3-d]pyrimidin-6(7H)-one] | 99 | 862 | – |
| CC1(c2ccccc2)C(=O)Nc2nc(-c3cn4cc(C5CC5)nc4c(CCC(F)(F)C(F)(F)F)n3)nc(N)c21 (stereo not drawn) [Example 158B, 4-amino-2-(2-cyclopropyl-8-(3,3,4,4,4-pentafluorobutyl)imidazo [1,2-a]pyrazin-6-yl)-5-methyl-5-phenyl-5H-pyrrolo[2,3-d]pyrimidin-6(7H)-one] | 109 | 296 | – |
| CCCCc1nc(-c2nc(N)c3c(n2)NC(=O)C3(c2cc(C(F)(F)F)ccn2)C2CC2)cn2ccnc12 (single isomer, unassigned) [Example 367B, 4-amino-2-(8-butylimidazo[1,2-a]pyrazin-6-yl)-5-cyclopropyl-5-(4-(trifluoromethyl)pyridin-2-yl)-5H-pyrrolo[2,3-d]pyrimidin-6(7H)-one] | 170 | 155 | – |
| Nc1nc(-c2cn3cc(C(F)(F)F)nc3c(Cc3cccc(F)c3)n2)nc2c1C(C(=O)NC1CC1)(C1CC1)C(=O)N2 (stereo not drawn) [Example 44B, 4-amino-N,5-dicyclopropyl-2-(8-(3-fluorobenzyl)-2-(trifluoromethyl)imidazo[1,2-a]pyrazin-6-yl)-6-oxo-6,7-dihydro-5H-pyrrolo[2,3-d]pyrimidine-5-carboxamide] | 88 | 286 | – |
| CC1(c2ccc(F)cc2)C(=O)Nc2nc(-c3cn4ccnc4c(Cc4c(F)ccc(F)c4F)n3)nc(N)c21 (stereo not drawn) [Example 98A, 4-amino-5-(4-fluorophenyl)-5-methyl-2-(8-(2,3,6-trifluorobenzyl)imidazo[1,2-a]pyrazin-6-yl)-5H-pyrrolo[2,3-d]pyrimidin-6(7H)-one] | 110 | 13 | – |
| CC1(c2ccc(Cl)cc2)C(=O)Nc2nc(-c3cn4ccnc4cn3)nc(NCCCC(F)(F)F)c21 (stereo not drawn) [Example 285A, 5-(4-chlorophenyl)-2-(imidazo[1,2-a]pyrazin-6-yl)-5-methyl-4-((4,4,4-trifluorobutyl)amino)-5H-pyrrolo[2,3-d]pyrimidin-6(7H)-one] | 130 | 20 | – |
| CC1(c2ccc(F)cc2)C(=O)Nc2nc(-c3cn4ccnc4c(CCC(F)(F)C(F)(F)F)n3)nc(N3CCSCC3)c21 (stereo not drawn) [Example 300A, 5-(4-fluorophenyl)-5-methyl-2-(8-(3,3,4,4,4-pentafluorobutyl)imidazo[1,2-a]pyrazin-6-yl)-4-thiomorpholine-5H-pyrrolo[2,3-d]pyrimidin-6(7H)-one] | 136 | 492 | – |
